Data from patent publication US20190218207A1, “3-(Pyridin-3-yl)-Acrylamide and N-(Pyridin-3-yl)-Acrylamide Derivatives and Their Use as PAK or NAMPT Modulators” (Karyopharm Therapeutics Inc., priority 2015, published 2019).
Like-named read-outs stand apart in the source and are kept apart here.

What was measured:
MS751 cells = experiment: MTT cell proliferation assay, MS751 cells; format: cell-based, human; conditions: incubation approximately 64-72 hours, read-out: MTT Assay IC50, MS 751
Description: (§1) The MTT cell proliferation assay was used to study the cytotoxic properties of the compounds. The assay was performed according to the method described by Roche Molecular Biochemicals, with minor modifications. The assay is based on the cleavage of the tetrazolium salt, MTT, in the presence of an electron-coupling reagent. The water-insoluble formazan salt produced must be solubilized in an additional step. Cells grown in a 96-well tissue culture plate were incubated with the MTT solution for approximately 4 hours. After this incubation period, a water-insoluble formazan dye formed. After solubilization, the formazan dye was quantitated using a scanning multi-well spectrophotometer (ELISA reader). […] The cells were seeded at 5,000-10,000 cells in each well of 96-well plate in 100 μL of fresh culture medium and were allowed to attach overnight. The stock solutions of the compounds were diluted in […] cell culture medium to obtain eight concentrations of each test compound, ranging from 1 nM to 30 μM. […] All optical densities were measured at 490 nm using a Vmax Kinetic Microplate Reader (Molecular Devices). In most cases, the assay was performed in duplicate and the results were presented as a mean percent inhibition to the negative control±SE. The following formula was used to calculate the percent of inhibition: Inhibition (%)=(1-(ODo/OD))×100.
(§2) The compounds were tested against MS751, Z138 and 3T3 cells. The MS751 cell line is derived from a metastasis to lymph node of human cervix from a patient diagnosed with squameous cell carcinoma of the cervix. The Z138 cell line is a mature B-cell acute lymphoblastic leukemia cell line derived from a patient with chronic lumphocytic leukemia. 3T3 cells are standard fibroblast cells; they were originally isolated from Swiss mouse embryo tissue.

Z138 cells = experiment: MTT cell proliferation assay, Z138 cells; format: cell-based, human
Description: as §1, §2

3T3 cells = experiment: MTT cell proliferation assay, 3T3 cells; format: cell-based, mouse; conditions: 3T3 fibroblast cells, incubation approximately 64-72 hours
Description: as §1, §2

[1] = Homo sapiens, Z-138, incubation approximately 64-72 hours
[2] = incubation approximately 64-72 hours, read-out: MTT Assay IC50, Z-138

Question: With Nc1ccc(/C=C/C(=O)NCc2ccc(-c3cc4cc(C(=O)N5CCC(F)(F)CC5)cnc4cc3C(F)(F)F)o2)cn1 [Compound A026, (E)-3-(6-aminopyridin-3-yl)-N-((5-(3-(4,4-difluoropiperidine-1-carbonyl)-7-(trifluoromethyl)quinolin-6-yl)furan-2-yl)methyl)acrylamide] as the compound, how does the IC50 (MS751 cells; Homo sapiens) read?
Answer: < 1 µM

Question: What about the IC50 (Z138 cells; [1]) of the same compound?
Answer: < 1 µM

Question: And the IC50 (3T3 cells; Mus musculus, NIH3T3)?
Answer: 1 to 5 µM

Question: Which IC50 (MS751 cells; Homo sapiens) does the source give for Cc1c(CNC(=O)/C=C/c2ccc(N)nc2)sc(-c2ccc(-c3ccc(C(=O)N4CC(F)C4)cc3)cc2-c2ccc(F)cc2)c1C [Compound A013, (E)-3-(6-aminopyridin-3-yl)-N-((5-(4″-fluoro-4-(3-fluoroazetidine-1-carbonyl)-[1,1′:3′,1″-terphenyl]-4′-yl)-3,4-dimethylthiophen-2-yl)methyl)acrylamide] here?
Answer: 1 to 5 µM

Question: What about the IC50 (Z138 cells; [1]) of the same compound?
Answer: < 1 µM

Question: What about the IC50 (3T3 cells; Mus musculus, NIH3T3) of the same compound?
Answer: > 10 µM

Question: Which results are given for Cc1c(CNC(=O)/C=C/c2ccc(N)nc2)sc(-c2ccc(-c3ccc(C(=O)N4CC(F)C4)cc3)cc2C(F)(F)F)c1C [Compound A016, (E)-3-(6-aminopyridin-3-yl)-N-((5-(4′-(3-fluoroazetidine-1-carbonyl)-3-(trifluoromethyl)-[1,1′-biphenyl]-4-yl)-3,4-dimethylthiophen-2-yl)methyl)acrylamide]?
Answer: IC50 (MS751 cells; Homo sapiens): > 10 µM; IC50 (Z138 cells; [1]): > 10 µM; IC50 (3T3 cells; Mus musculus, NIH3T3): > 10 µM

Question: For Nc1ccc(/C=C/C(=O)NCc2nnc(-c3ccc(-c4ccc(C(=O)N5CC(F)(F)C5)cc4)cc3C(F)(F)F)o2)cn1 [Compound A018, (E)-3-(6-aminopyridin-3-yl)-N-((5-(4′-(3,3-difluoroazetidine-1-carbonyl)-3-(trifluoromethyl)-[1,1′-biphenyl]-4-yl)-1,3,4-oxadiazol-2-yl)methyl)acrylamide], which IC50 (MS751 cells; Homo sapiens) is on record?
Answer: < 1 µM

Question: What about the IC50 (Z138 cells; [1]) of the same compound?
Answer: < 1 µM

Question: And the IC50 (3T3 cells; Mus musculus, NIH3T3)?
Answer: > 10 µM

Question: How did the IC50 (MS751 cells; Homo sapiens) turn out when Nc1ccc(/C=C/C(=O)NCc2ccc(-c3ccc(-c4ccc(C(=O)N5CCC(F)(F)CC5)cc4F)cc3-c3ccc(F)cc3)o2)cn1 [Compound A007, (E)-3-(6-aminopyridin-3-yl)-N-((5-(4-(4,4-difluoropiperidine-1-carbonyl)-2,4″-difluoro-[1,1′:3′,1″-terphenyl]-4′-yl)furan-2-yl)methyl)acrylamide] was run?
Answer: < 1 µM

Question: What about the IC50 (Z138 cells; [1]) of the same compound?
Answer: < 1 µM

Question: And the IC50 (3T3 cells; Mus musculus, NIH3T3)?
Answer: 5 to 10 µM

Question: How did the IC50 (MS751 cells; Homo sapiens) turn out when Cc1c(CNC(=O)/C=C/c2ccc(N)nc2)sc(-c2ccc(-c3ccc(C(=O)N4CCC(F)(F)CC4)cc3)cc2-c2ccc(F)cc2)c1C [Compound A023, (E)-3-(6-aminopyridin-3-yl)-N-((5-(4-(4,4-difluoropiperidine-1-carbonyl)-4″-fluoro-[1,1′:3′,1″-terphenyl]-4′-yl)-3,4-dimethylthiophen-2-yl)methyl)acrylamide] was run?
Answer: 1 to 5 µM

Question: And the IC50 (Z138 cells; [1])?
Answer: < 1 µM

Question: And the IC50 (3T3 cells; Mus musculus, NIH3T3)?
Answer: > 10 µM

Question: What does the source list for Cn1c(CNC(=O)/C=C/c2ccc(N)nc2)ccc1-c1ccc(-c2ccc(C(=O)N3CCC(F)(F)CC3)cc2)cc1-c1ccc(F)cc1 [Compound A-012, (E)-3-(6-aminopyridin-3-yl)-N-((5-(4-(4,4-difluoropiperidine-1-carbonyl)-4″-fluoro-[1,1′:3′,1″-terphenyl]-4′-yl)-1-methyl-1H-pyrrol-2-yl)methyl)acrylamide]?
Answer: IC50 (MS751 cells; Homo sapiens): > 10 µM; IC50 (Z138 cells; [1]): > 10 µM; IC50 (3T3 cells; Mus musculus, NIH3T3): > 10 µM

Question: How did the IC50 (MS751 cells; Homo sapiens) turn out when Nc1ccc(/C=C/C(=O)NCc2cnc(-c3ccc(-c4ccc(C(=O)N5CC(F)C5)cc4)cc3C(F)(F)F)o2)cn1 [Compound A021, (E)-3-(6-aminopyridin-3-yl)-N-((2-(4′-(3-fluoroazetidine-1-carbonyl)-3-(trifluoromethyl)-[1,1′-biphenyl]-4-yl)oxazol-5-yl)methyl)acrylamide] was run?
Answer: < 1 µM

Question: What about the IC50 (Z138 cells; [1]) of the same compound?
Answer: < 1 µM

Question: What about the IC50 (3T3 cells; Mus musculus, NIH3T3) of the same compound?
Answer: 1 to 5 µM

Question: Cc1c(CNC(=O)/C=C/c2ccc(N)nc2)sc(-c2ccc(C3CC3C(=O)N3CC(F)C3)cc2C(F)(F)F)c1C (stereo not shown) [Compound A017, (E)-3-(6-aminopyridin-3-yl)-N-((5-(4-(2-(3-fluoroazetidine-1-carbonyl)cyclopropyl)-2-(trifluoromethyl)phenyl)-3,4-dimethylthiophen-2-yl)methyl)acrylamide] was tested. Which IC50 (MS751 cells; Homo sapiens) did it give?
Answer: 1 to 5 µM

Question: What about the IC50 (Z138 cells; [1]) of the same compound?
Answer: < 1 µM

Question: What about the IC50 (3T3 cells; Mus musculus, NIH3T3) of the same compound?
Answer: > 10 µM

Question: Which IC50 (MS751 cells; Homo sapiens) does the source give for Nc1ccc(/C=C/C(=O)NCc2ncc(-c3ccc(-c4ccc(C(=O)N5CC(F)(F)C5)cc4)cc3C(F)(F)F)o2)cn1 [Compound A024, (E)-3-(6-aminopyridin-3-yl)-N-((5-(4′-(3,3-difluoroazetidine-1-carbonyl)-3-(trifluoromethyl)-[1,1′-biphenyl]-4-yl)oxazol-2-yl)methyl)acrylamide] here?
Answer: < 1 µM

Question: What about the IC50 (Z138 cells; [1]) of the same compound?
Answer: < 1 µM

Question: And the IC50 (3T3 cells; Mus musculus, NIH3T3)?
Answer: 1 to 5 µM

Question: Which IC50 (MS751 cells; Homo sapiens) does the source give for Nc1ccc(/C=C/C(=O)NCc2cnc(-c3ccc(-c4ccc(C(=O)N5CC(F)C5)cc4F)cc3C(F)(F)F)o2)cn1 [Compound A020, (E)-3-(6-aminopyridin-3-yl)-N-((2-(2′-fluoro-4′-(3-fluoroazetidine-1-carbonyl)-3-(trifluoromethyl)-[1,1′-biphenyl]-4-yl)oxazol-5-yl)methyl)acrylamide] here?
Answer: < 1 µM

Question: And the IC50 (Z138 cells; [1])?
Answer: < 1 µM

Question: What about the IC50 (3T3 cells; Mus musculus, NIH3T3) of the same compound?
Answer: 1 to 5 µM

Question: With Cc1cc(-c2ccc(-c3ccc(C(=O)N4CC(F)C4)cc3)cc2C(F)(F)F)sc1CNC(=O)/C=C/c1ccc(N)nc1 [Compound A014, (E)-3-(6-aminopyridin-3-yl)-N-((5-(4′-(3-fluoroazetidine-1-carbonyl)-3-(trifluoromethyl)-[1,1′-biphenyl]-4-yl)-3-methylthiophen-2-yl)methyl)acrylamide] as the compound, how does the IC50 (MS751 cells; Homo sapiens) read?
Answer: < 1 µM

Question: And the IC50 (Z138 cells; [1])?
Answer: < 1 µM

Question: What about the IC50 (3T3 cells; Mus musculus, NIH3T3) of the same compound?
Answer: 5 to 10 µM

Question: Which results are given for “(E)-3-(6-aminopyridin-3-yl)-N-((5-(1-chloro-6-(4,4-difluoropiperidine-1-carbonyl)naphthalen-2-yl)furan-2-yl)methyl)acrylamide [Compound A004]”?
Answer: IC50 (MS751 cells): < 1 µM; IC50 (Z138 cells; [2]): < 1 µM; IC50 (3T3 cells): > 10 µM

Question: What does the source list for Nc1ccc(/C=C/C(=O)NCc2ccc(-c3ccc(-c4ccc(C(=O)N5CCC(F)(F)CC5)cn4)cc3C(F)(F)F)s2)cn1 [Compound A005, (E)-3-(6-aminopyridin-3-yl)-N-((5-(4-(5-(4,4-difluoropiperidine-1-carbonyl)pyridin-2-yl)-2-(trifluoromethyl)phenyl)thiophen-2-yl)methyl)acrylamide]?
Answer: IC50 (MS751 cells; Homo sapiens): < 1 µM; IC50 (Z138 cells; [1]): < 1 µM; IC50 (3T3 cells; Mus musculus, NIH3T3): 1 to 5 µM

Question: O=C(/C=C/c1cccnc1)NCc1ccc(-c2ccc(-c3ccc(C(=O)N4CCC(F)(F)CC4)cn3)cc2C(F)(F)F)o1 [Compound A002, (E)-N-((5-(4-(5-(4,4-difluoropiperidine-1-carbonyl)pyridin-2-yl)-2-(trifluoromethyl)phenyl)furan-2-yl)methyl)-3-(pyridin-3-yl)acrylamide] was tested. Which IC50 (MS751 cells; Homo sapiens) did it give?
Answer: < 1 µM

Question: And the IC50 (Z138 cells; [1])?
Answer: < 1 µM

Question: What about the IC50 (3T3 cells; Mus musculus, NIH3T3) of the same compound?
Answer: > 10 µM

Question: For Nc1ccc(/C=C/C(=O)NCc2ccc(-c3ccc(-c4ccc(C(=O)N5CC(F)(F)C5)cn4)cc3C(F)(F)F)o2)cn1 [Compound A003, (E)-3-(6-aminopyridin-3-yl)-N-((5-(4-(5-(3,3-difluoroazetidine-1-carbonyl)pyridin-2-yl)-2-(trifluoromethyl)phenyl)furan-2-yl)methyl)acrylamide], which IC50 (MS751 cells; Homo sapiens) is on record?
Answer: < 1 µM

Question: What about the IC50 (Z138 cells; [1]) of the same compound?
Answer: < 1 µM

Question: And the IC50 (3T3 cells; Mus musculus, NIH3T3)?
Answer: < 1 µM

Question: Which IC50 (MS751 cells; Homo sapiens) does the source give for Nc1ccc(/C=C/C(=O)NCc2ccc(-c3ccc(-c4ccc(C(=O)N5CC(F)(F)C5)cc4)cc3C(F)(F)F)o2)cn1 [Compound A015, (E)-3-(6-aminopyridin-3-yl)-N-((5-(4′-(3,3-difluoroazetidine-1-carbonyl)-3-(trifluoromethyl)-[1,1′-biphenyl]-4-yl)furan-2-yl)methyl)acrylamide] here?
Answer: < 1 µM

Question: What about the IC50 (Z138 cells; [1]) of the same compound?
Answer: < 1 µM

Question: What about the IC50 (3T3 cells; Mus musculus, NIH3T3) of the same compound?
Answer: > 10 µM

Question: Which IC50 (MS751 cells; Homo sapiens) does the source give for Nc1ccc(/C=C/C(=O)NCc2ccc(-c3ccc(-c4ccc(C(=O)N5CCC(F)(F)CC5)cn4)cc3Cl)o2)cn1 [Compound A006, (E)-3-(6-aminopyridin-3-yl)-N-((5-(2-chloro-4-(5-(4,4-difluoropiperidine-1-carbonyl)pyridin-2-yl)phenyl)furan-2-yl)methyl)acrylamide] here?
Answer: < 1 µM

Question: And the IC50 (Z138 cells; [1])?
Answer: < 1 µM

Question: And the IC50 (3T3 cells; Mus musculus, NIH3T3)?
Answer: 1 to 5 µM

Question: How did the IC50 (Z138 cells; [1]) turn out when Nc1ccc(/C=C/C(=O)NCc2ccc(-c3cc4c(C(=O)N5CCC(F)(F)CC5)c[nH]c4cc3C(F)(F)F)o2)cn1 [Compound A029, (E)-3-(6-aminopyridin-3-yl)-N-((5-(3-(4,4-difluoropiperidine-1-carbonyl)-6-(trifluoromethyl)-1H-indol-5-yl)furan-2-yl)methyl)acrylamide] was run?
Answer: < 1 µM

Question: And the IC50 (3T3 cells; Mus musculus, NIH3T3)?
Answer: > 10 µM

Question: Which IC50 (Z138 cells; [2]) does the source give for “2-(6-aminopyridin-3-yloxy)-N-((4-(3-(4-fluorophenyl)-4′-(4,4-difluoropiperidine-1-carbonyl)biphenyl-4-yl)furan-2-yl)methyl)acetamide [Compound A028]” here?
Answer: < 1 µM

Question: And the IC50 (3T3 cells)?
Answer: > 10 µM
